Values after ≈ are worked out from the molar mass of the structure shown. Like-named read-outs stand apart in the source and are kept apart here.
Columns and labels:
Type in all cases: cell-based
K. pneumoniae 60 = test: MIC determination, broth microdilution (CLSI); settings: for MIC: Klebsiella pneumoniae, 60, strain 2
S. pneumoniae 113 = test: MIC determination, broth microdilution (CLSI); settings: broth microdilution
H. influenzae ATCC 49247 = test: MIC determination, broth microdilution (CLSI); settings: broth microdilution
S. aureus 133 = test: MIC determination, broth microdilution (CLSI)
P. aeruginosa PAO1 = test: MIC determination, broth microdilution (CLSI); settings: for MIC: Pseudomonas aeruginosa, PAO1, strain 6
Bacteria = test: MIC determination in combination with β-lactamase inhibitors (constant 4 μg/mL)
E. coli ATCC25922 = test: MIC determination, broth microdilution (CLSI); settings: for MIC: Escherichia coli, ATCC25922, strain 1
S. maltophilia ICB7569 = test: MIC determination, broth microdilution (CLSI); settings: for MIC: Stenotrophomonas maltophilia, ICB7569, strain 10
[1] = tested on: P. aeruginosa 2297 (AmpC wt); test: MIC determination, broth microdilution (CLSI); settings: for MIC: Pseudomonas aeruginosa, strain 7
A. baumannii ATCC15308 = test: MIC determination, broth microdilution (CLSI); settings: for MIC: Acinetobacter baumannii, ATCC15308, strain 9
[2] = tested on: P. aeruginosa 2297-con (AmpC derepressed); test: MIC determination, broth microdilution (CLSI); settings: for MIC: Pseudomonas aeruginosa, read-out: strain 8 MIC, strain 8
E. coli J62-TEM-3 = test: MIC determination, broth microdilution (CLSI); settings: broth microdilution; for MIC: Escherichia coli, J62TEM3, read-out: MIC strain 18 (E. coli J62-TEM-3), strain 18
E. coli J62 = test: MIC determination, broth microdilution (CLSI); settings: broth microdilution; for MIC: Escherichia coli, J62, strain 17, read-out: MIC strain 17 (E. coli J62)
M. morganii 126/3048 = test: MIC determination, broth microdilution (CLSI); settings: for MIC: Morganella morganii, 126/3048, strain 5
E. cloacae 34654 = test: MIC determination, broth microdilution (CLSI); settings: for MIC: Enterobacter cloacae, 34654, strain 3
C. freundii K21/3034 = test: MIC determination, broth microdilution (CLSI); settings: for MIC: Citrobacter freundii, K21/3034, strain 4
B. fragilis 6688 = test: MIC determination, broth microdilution (CLSI); settings: Bacteroides fragilis, 6688, strain 15; broth microdilution; read-out: MIC strain 15 (B. fragilis 6688)
[3] = Staphylococcus aureus, 133, strain 14, broth microdilution, read-out: MIC strain 14 (S. aureus 133)

Structure (SMILES)	strain 2 MIC (K. pneumoniae 60) [µg/mL]	MIC strain 19 (E. coli J62-TEM-3 + 4 μg/mL clavulanic acid) (Bacteria) [µg/mL]	MIC strain 20 (E. coli J62-TEM-3 + 4 μg/mL sulbactam) (Bacteria) [µg/mL]	MIC strain 21 (E. coli J62-TEM-3 + 4 μg/mL tazobactam) (Bacteria) [µg/mL]	strain 1 MIC (E. coli ATCC25922) [µg/mL]	strain 10 MIC (S. maltophilia ICB7569) [µg/mL]	strain 8 MIC [2] [µg/mL]	MIC strain 18 (E. coli J62-TEM-3) (E. coli J62-TEM-3) [µg/mL]	MIC strain 17 (E. coli J62) (E. coli J62) [µg/mL]	MIC (S. aureus 133; [3]) [µg/mL]	MIC (P. aeruginosa PAO1) [µg/mL]	MIC [1] [µg/mL]	MIC (A. baumannii ATCC15308) [µg/mL]	MIC (K. pneumoniae 60) [µg/mL]	MIC (E. coli ATCC25922) [µg/mL]	MIC (S. maltophilia ICB7569) [µg/mL]	MIC (E. coli J62-TEM-3) [µg/mL]	MIC (E. coli J62) [µg/mL]	MIC (E. cloacae 34654) [µg/mL]	MIC (C. freundii K21/3034) [µg/mL]	further results
CC1(C)[C@H](NC(=O)/C(=N\OC(COc2ccc(C(=N)NCCN)cc2)C(=O)O)c2csc(N)n2)C(=O)N1OS(=O)(=O)O (mixture of isomers) [Example 44B, (2R and 2S)-3-{4-[N-(2-Aminoethyl)carbamimidoyl]phenoxy}-2-({[(1Z)-1-(2-amino-1,3-thiazol-4-yl)-2-{[(3S)-2,2-dimethyl-4-oxo-1-(sulfooxy)azetidin-3-yl]amino}-2-oxoethylidene]amino}oxy)propanoic acid]	1	2	2	4	2	16	8	4	2												MIC strain 13 (S. pneumoniae 113) (S. pneumoniae 113; strain 13): 4 µg/mL; MIC strain 12 (H. influenzae ATCC 49247) (H. influenzae ATCC 49247; strain 12): 0.5 µg/mL; strain 11 MIC (S. aureus 133; strain 11): ≦0.063 mg/L; strain 6 MIC (P. aeruginosa PAO1): 8 µg/mL; strain 7 MIC [1]: 16 µg/mL; strain 9 MIC (A. baumannii ATCC15308): 8 µg/mL; strain 5 MIC (M. morganii 126/3048): 4 µg/mL; strain 3 MIC (E. cloacae 34654): 4 µg/mL; strain 4 MIC (C. freundii K21/3034): 2 µg/mL
CC1(C)[C@H](NC(=O)/C(=N\OC(CO)COc2ccc(C(=N)N)cc2)c2csc(N)n2)C(=O)N1OS(=O)(=O)O (mixture of isomers) [Example 45A, (2Z)-2-(2-Amino-1,3-thiazol-4-yl)-2-({[(2R and 2S)-1-(4-carbamimidoylphenoxy)-3-hydroxypropan-2-yl]oxy}imino)-N-[(3S)-2,2-dimethyl-4-oxo-1-(sulfooxy)azetidin-3-yl]ethanamide]	0.5	0.5	0.5	0.5	0.5	8	8	1	0.5	8	8	16	2								strain 5 MIC (M. morganii 126/3048): 0.5 µg/mL; strain 3 MIC (E. cloacae 34654): 1 µg/mL; strain 4 MIC (C. freundii K21/3034): 0.25 µg/mL
CC1(C)[C@H](NC(=O)/C(=N\O[C@@H](COc2ccc(C(=N)NC3CC3N)cc2)C(=O)O)c2csc(N)n2)C(=O)N1OS(=O)(=O)O (single isomer, unassigned) [Example 100B]	2	2	2	2	2	32	16	16 (≈ 25 µM)	4 (≈ 6.24 µM)												strain 6 MIC (P. aeruginosa PAO1): 16 µg/mL; strain 7 MIC [1]: 32 µg/mL; strain 9 MIC (A. baumannii ATCC15308): 32 µg/mL; strain 3 MIC (E. cloacae 34654): 4 µg/mL; strain 4 MIC (C. freundii K21/3034): 2 µg/mL
C[C@H]1[C@H](NC(=O)/C(=N\OCCOc2cc(C(=N)N)nn2C)c2csc(N)n2)C(=O)N1S(=O)(=O)O [Example 71, (2S,3S)-3-{[(2Z)-2-(2-Amino-1,3-thiazol-4-yl)-2-({2-[(3-carbamimidoyl-1-methyl-1H-pyrazol-5-yl)oxy]ethoxy}imino)acetyl]amino}-2-methyl-4-oxoazetidine-1-sulfonic acid]		2	4	4							16 (≈ 31 µM)	32 (≈ 62.1 µM)	4 (≈ 7.76 µM)	1 (≈ 1.94 µM)	2 (≈ 3.88 µM)	4 (≈ 7.76 µM)	32 (≈ 62.1 µM)	8 (≈ 15.5 µM)	4 (≈ 7.76 µM)	1 (≈ 1.94 µM)	MIC (S. pneumoniae 113; Streptococcus pneumoniae, 113, strain 13, read-out: MIC strain 13 (S. pneumoniae 113)): 0.5 µg/mL (≈ 0.97 µM); MIC (H. influenzae ATCC 49247; Haemophilus influenzae, ATCC49247, strain 12, read-out: MIC strain 12 (H. influenzae ATCC 49247)): 1 µg/mL (≈ 1.94 µM); MIC (S. aureus 133; Staphylococcus aureus, 133, strain 11, read-out: strain 11 MIC): 0.25 µg/mL (≈ 0.485 µM); MIC (B. fragilis 6688): 8 µg/mL (≈ 15.5 µM); MIC (M. morganii 126/3048): 1 µg/mL (≈ 1.94 µM)
CC1(C)[C@H](NC(=O)/C(=N\OC(COc2ccc(C(=N)N)cc2)C(N)=O)c2csc(N)n2)C(=O)N1OS(=O)(=O)O (stereo partly drawn) [Example 75, 2-({[(1Z)-1-(2-Amino-1,3-thiazol-4-yl)-2-{[(3S)-2,2-dimethyl-4-oxo-1-(sulfooxy)azetidin-3-yl]amino}-2-oxoethylidene]amino}oxy)-3-(4-carbamimidoylphenoxy)propanamide]		0.25	0.5	0.5						16 (≈ 27.4 µM)	8 (≈ 13.7 µM)	16 (≈ 27.4 µM)	2 (≈ 3.42 µM)	0.5 (≈ 0.855 µM)	0.25 (≈ 0.428 µM)	4 (≈ 6.84 µM)	1 (≈ 1.71 µM)	0.5 (≈ 0.855 µM)	0.5 (≈ 0.855 µM)	0.125 (≈ 0.214 µM)	MIC [2]: 8 µg/mL (≈ 13.7 µM); MIC (M. morganii 126/3048): 0.25 µg/mL (≈ 0.428 µM)
CC1(C)[C@H](NC(=O)/C(=N\OCCOc2ccc(C(=N)N3CCNCC3)cc2)c2csc(N)n2)C(=O)N1OS(=O)(=O)O [Example 80, (2Z)-2-(2-Amino-1,3-thiazol-4-yl)-N-[(3S)-2,2-dimethyl-4-oxo-1-(sulfooxy)azetidin-3-yl]-2-[(2-{4-[imino(piperazin-1-yl)methyl]phenoxy}ethoxy)imino]ethanamide]		0.5	0.5	0.5						4 (≈ 6.55 µM)	16 (≈ 26.2 µM)	16 (≈ 26.2 µM)	2 (≈ 3.28 µM)	0.5 (≈ 0.819 µM)	0.25 (≈ 0.409 µM)	32 (≈ 52.4 µM)	16 (≈ 26.2 µM)	0.5 (≈ 0.819 µM)	1 (≈ 1.64 µM)	0.25 (≈ 0.409 µM)	MIC [2]: 8 µg/mL (≈ 13.1 µM)
CC1(C)[C@H](NC(=O)/C(=N\O[C@@H](COc2ccc(C(=N)N[C@H]3CCNC3)cc2)C(=O)O)c2csc(N)n2)C(=O)N1OS(=O)(=O)O [Example 93]		0.125	0.125	0.125						32 (≈ 48.9 µM)	1 (≈ 1.53 µM)	1 (≈ 1.53 µM)	1 (≈ 1.53 µM)	0.125 (≈ 0.191 µM)	≤ 0.063	4 (≈ 6.11 µM)	4 (≈ 6.11 µM)	0.125 (≈ 0.191 µM)	0.125 (≈ 0.191 µM)	≤ 0.063	MIC [2]: 1 µg/mL (≈ 1.53 µM)
